Experimental data: patent US20110097274A1, “Carbon-11 and fluorine-18 labeled radioligands for positron emission tomography (PET) imaging for the brain serotonin transporters” (priority 2002, published 2011)
“And” between values parts separate entries of the source, which are not always exact repeats. Equal values may be shown once. Read-outs that look alike come from different tables or passages of the source.

System: SERT
Experiment: Baboon PET imaging: brain uptake, kinetic analysis and SERT parameters
Format: in vivo
Settings: for Kp: male, baboon, brain, intravenous
How it was run: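 Two isoflurane-anaesthetised adult male baboons, each radioligand tested twice (test-retest); i.v. bolus, 91 min 3D emission scan with arterial sampling, MRI-defined regions. Brain uptake as % ID g^−1, with peak time and washout; VT from one-tissue compartment model (K1/k2) using arterial plasma input.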

[1] = BP = VT ROI − VT CER, baboons, mean ± SD of four experiments
[2] = Mean ± SD of four experiments in two baboons
[3] = baboon A, experiments of FIGS. 5-9 (FIG. 10)
[4] = baboons, mean ± SD of four experiments
[5] = last scan 90 minutes, baboons, mean ± SD of four experiments
[6] = one-tissue compartment model, baboons, mean ± SD of four experiments

**Q.** What does the source list for CN(C)Cc1ccccc1Sc1ccc(I)cc1N [[^11C]ADAM]?
**A.** Binding potential Cingulate Cortex [1]: 8.8 ± 3.9 mL/g; Binding potential Hippocampus [1]: 12.6 ± 3.3 mL/g; Binding potential Midbrain [1]: 28.5 ± 6.7 mL/g; Binding potential Occipital Cortex [1]: 4.9 ± 3.8 mL/g; Binding potential Striatum [1]: 17.8 ± 3.7 mL/g; Binding potential Temporal Cortex [1]: 10.1 ± 5.0 mL/g; Binding potential Thalamus [1]: 31.4 ± 6.1 mL/g; Equilibrium specific to non-specific partition coefficient (V3″) Cingulate Cortex (Baboon A, single experiment): 0.28 and 0.43; Equilibrium specific to non-specific partition coefficient (V3″) Hippocampus (Baboon A, single experiment): 0.41 and 0.49; Equilibrium specific to non-specific partition coefficient (V3″) Midbrain (Baboon A, single experiment): 1.04 and 0.81; Equilibrium specific to non-specific partition coefficient (V3″) Striatum (Baboon A, single experiment): 0.65 and 0.59; Equilibrium specific to non-specific partition coefficient (V3″) Temporal Cortex (Baboon A, single experiment): 0.41 and 0.47; Equilibrium specific to non-specific partition coefficient (V3″) Thalamus (Baboon A, single experiment): 1.18 and 0.92; Equilibrium specific to non-specific partition coefficient (V3″) Cingulate Cortex (Baboon B, single experiment): 0.23 and 0.26; Equilibrium specific to non-specific partition coefficient (V3″) Hippocampus (Baboon B, single experiment): 0.38 and 0.47; Equilibrium specific to non-specific partition coefficient (V3″) Midbrain (Baboon B, single experiment): 0.91 and 1.25; Equilibrium specific to non-specific partition coefficient (V3″) Occipital Cortex (Baboon B, single experiment): 0.07 and 0.12; Equilibrium specific to non-specific partition coefficient (V3″) Striatum (Baboon B, single experiment): 0.56 and 0.68; Equilibrium specific to non-specific partition coefficient (V3″) Temporal Cortex (Baboon B, single experiment): 0.18 and 0.30; Equilibrium specific to non-specific partition coefficient (V3″) Thalamus (Baboon B, single experiment): 1.05 and 1.26; Equilibrium specific to non-specific partition coefficient (V3″) Cingulate Cortex [2]: 0.30 ± 0.09; Equilibrium specific to non-specific partition coefficient (V3″) Hippocampus [2]: 0.44 ± 0.05; Equilibrium specific to non-specific partition coefficient (V3″) Midbrain [2]: 1.00 ± 0.19; Equilibrium specific to non-specific partition coefficient (V3″) Occipital Cortex [2]: 0.16 ± 0.11; Equilibrium specific to non-specific partition coefficient (V3″) Striatum [2]: 0.62 ± 0.06; Equilibrium specific to non-specific partition coefficient (V3″) Temporal Cortex [2]: 0.34 ± 0.13; Equilibrium specific to non-specific partition coefficient (V3″) Thalamus [2]: 1.10 ± 0.15; Thalamus to cerebellum ratio equal to true equilibrium ratio (V3″+1) [3]: 1.92; Time at which measured thalamus to cerebellum ratio equals the true equilibrium ratio (estimate of peak specific binding) [3]: 55 min; K1, average of all regions and all animals (baboons): 1.09 ± 0.35 mL/g/min; k2, average of all regions and all animals (baboons): 0.028 ± 0.011 min⁻¹; V3″ expressed in percentage of [^11C]McN 5652 V3″ (baboons, combining all regions): 128±24%; Mean regional peak uptake time (baboons, mean of all regions): 37 ± 18 min; Mean regional wash-out (% decrease between peak time and last scan) (baboons, mean of all regions): 25±14%; Cingulate Cortex to cerebellum activity ratio at 90 minutes [4]: 1.29 ± 0.07; Hippocampus to cerebellum activity ratio at 90 minutes [4]: 1.45 ± 0.06; Midbrain to cerebellum activity ratio at 90 minutes [4]: 1.96 ± 0.18; Occipital Cortex to cerebellum activity ratio at 90 minutes [4]: 1.14 ± 0.09; Regional uptake peak time Cerebellum [4]: 14 ± 5 min; Regional uptake peak time Cingulate Cortex [4]: 32 ± 17 min; Regional uptake peak time Hippocampus [4]: 46 ± 8 min; Regional uptake peak time Midbrain [4]: 49 ± 22 min; Regional uptake peak time Occipital Cortex [4]: 30 ± 18 min; Regional uptake peak time Striatum [4]: 39 ± 15 min; Regional uptake peak time Temporal Cortex [4]: 39 ± 13 min; Regional uptake peak time Thalamus [4]: 51 ± 24 min; Striatum to cerebellum activity ratio at 90 minutes [4]: 1.65 ± 0.13; Temporal Cortex to cerebellum activity ratio at 90 minutes [4]: 1.33 ± 0.08; Thalamus to cerebellum activity ratio at 90 minutes [4]: 2.05 ± 0.23; Total brain uptake at 45 min (baboons, region encompassing the entire brain): 0.017±0.001 % ID g^−1; Regional activity wash-out: % decrease from peak to last scan, Cerebellum [5]: 45 ± 8%; Regional activity wash-out: % decrease from peak to last scan, Cingulate Cortex [5]: 34 ± 7%; Regional activity wash-out: % decrease from peak to last scan, Hippocampus [5]: 15 ± 6%; Regional activity wash-out: % decrease from peak to last scan, Midbrain [5]: 10 ± 7%; Regional activity wash-out: % decrease from peak to last scan, Occipital Cortex [5]: 36 ± 10%; Regional activity wash-out: % decrease from peak to last scan, Striatum [5]: 23 ± 6%; Regional activity wash-out: % decrease from peak to last scan, Temporal Cortex [5]: 25 ± 8%; Regional activity wash-out: % decrease from peak to last scan, Thalamus [5]: 12 ± 5%; Kp (cingulate cortex, one-tissue compartment model, baboons, mean ± SD of four experiments, read-out: VT Cingulate Cortex): 37.3 ± 8.5; Kp (hippocampus, one-tissue compartment model, baboons, mean ± SD of four experiments, read-out: VT Hippocampus): 41.1 ± 8; Kp (midbrain, one-tissue compartment model, baboons, mean ± SD of four experiments, read-out: VT Midbrain): 57 ± 10.2; Kp (occipital cortex, one-tissue compartment model, baboons, mean ± SD of four experiments, read-out: VT Occipital Cortex): 33.5 ± 8.3; Kp (striatum, one-tissue compartment model, baboons, mean ± SD of four experiments, read-out: VT Striatum): 46.3 ± 8.4; Kp (temporal cortex, one-tissue compartment model, baboons, mean ± SD of four experiments, read-out: VT Temporal Cortex): 38.6 ± 9.7; Kp (thalamus, one-tissue compartment model, baboons, mean ± SD of four experiments, read-out: VT Thalamus): 59.9 ± 10.1; K1 Cerebellum [6]: 1.23 ± 0.44 mL/g/min; K1 Cingulate Cortex [6]: 1.20 ± 0.38 mL/g/min; K1 Hippocampus [6]: 0.85 ± 0.32 mL/g/min; K1 Midbrain [6]: 1.00 ± 0.35 mL/g/min; K1 Occipital Cortex [6]: 1.12 ± 0.33 mL/g/min; K1 Striatum [6]: 1.15 ± 0.45 mL/g/min; K1 Temporal Cortex [6]: 1.02 ± 0.37 mL/g/min; K1 Thalamus [6]: 1.14 ± 0.32 mL/g/min; K2 Cerebellum [6]: 0.043 ± 0.012 min⁻¹; K2 Cingulate Cortex [6]: 0.033 ± 0.009 min⁻¹; K2 Hippocampus [6]: 0.021 ± 0.006 min⁻¹; K2 Midbrain [6]: 0.018 ± 0.006 min⁻¹; K2 Occipital Cortex [6]: 0.034 ± 0.010 min⁻¹; K2 Striatum [6]: 0.025 ± 0.008 min⁻¹; K2 Temporal Cortex [6]: 0.027 ± 0.009 min⁻¹; K2 Thalamus [6]: 0.020 ± 0.006 min⁻¹; VT Cerebellum (VT CER, nonspecific distribution volume) [6]: 28.5 ± 4.8 mL/g
